# Measured values: PMC3943701 (Biochimica et biophysica acta, 2013)
# “Also recorded” adds a separate entry of the source. Read-outs that look alike come from different tables or passages of the source.
# Legend:
# M2 His37 = details: addition of amantadine; ref [17]; cited from earlier work
# influenza A/M2 protein = details: sensitive circulating influenza strains; ref [2], [3]; cited from earlier work
# [1] = test system: M2(19–62) wild type construct; type: biochemical, influenza A virus (A/Udorn/72); details: liposomes pre-mixed with amantadine HCl 3 h, 18°C
# [2] = test system: M2(19–62) thiazolylalanine construct; type: biochemical, influenza A virus (A/Udorn/72); details: pH 2.4
# [3] = in solution, no reference given, cited from earlier work
Structure (SMILES),"effect on His37 ring flip, protonation and deprotonation (in words) (M2 His37)",inhibition of M2 proton transport (in words) (influenza A/M2 protein),inhibitory effect of amantadine on flux (in words) ([1]; bathing buffer pH 2.4),amantadine sensitivity of flux (in words) ([1]; bathing buffer pH 7.4 and 4.9),amantadine inhibition of currents (in words) [2],solution pKa of side chain [3],solution pKa of side chain ([3]; listed as imidazole)
NC12CC3CC(CC(C3)C1)C2 [amantadine],significantly inhibited,inhibited,No inhibitory effect; also recorded: begins to be lost,amantadine-sensitive,robust amantadine inhibition,–,–
N[C@@H](Cc1c[nH]cn1)C(=O)O [histidine],–,–,–,–,–,6.5,~ 6.5
CC(N)C12CC3CC(CC(C3)C1)C2 (centres unmarked) [rimantadine],–,inhibited,–,–,–,–,–
